Test results: US6916844B2, “Hydroxy pyranone derivative and preparation method thereof” (Amorepacific Corporation, priority 2002, dated 2005)

Tests used:
Human fibroblasts [1] = experiment: Effect on biosynthesis of collagen (procollagen type (I) ELISA); type: cell-based; details: 10^-4 M, 24 hours, relative to untreated control group = 100
Experimental: The effect of the hydroxy pyranone derivatives obtained in Examples 1˜6 on biosynthesis of collagen was compared with those of retinol and retinoic acid.
Human fibroblasts were seeded into a 24-well plate to a density of 10^5 cells/well and then cultured to 90% of growth. The plate was washed with PBS (phosphate buffered saline) and treated with test samples at a concentration of 10^−4M, and then incubated in a CO2 incubator for 24 hours. From its supernatant, procollagen production was measured with procollagen type (I) ELISA kit. The biosynthesis of collagen was evaluated as a relative value compared with that of the control group, which is not treated with sample and of which the value of biosyntheis of collagen was set to be 100.

Human fibroblasts [2] = experiment: Collagenase-inhibiting effect (collagenase expression, ELISA kit); type: cell-based; details: 10^-4 M, 24 hours, relative to untreated control group = 100
Experimental: The collagenase-inhibiting effect of hydroxy pyranone derivatives obtained in Examples 1˜6 was compared with those of retinol and retinoic acid.
Human fibroblasts were cultured in Dulbecco's Modified Eagle's Medium (DMEM) supplemented with 2.5% fetal bovine serum. The fibroblasts were seeded into a 96-well microtiter plate to a density of 5,000 cells/well, and then cultured to 70˜80% of growth. The plate was treated with test samples at a concentration of 10^−4M for 24 hours, then the cultured medium and the cells were raked up and recovered. From the recovered culture, collagenase production was measured with collagenase kit (Catalog #: RPN 2610) commercialized by Amersham Pharmacia Biotech. First, the recovered culture was added into a 96-well plate wherein primary collagenase antibodies were uniformly spread, and then antigen-antibody reaction was performed in an incubator for 3 hours. Later, secondary collagenase antibodies bonded with chromophore were added to the 96-well plate and reacted for 15 minutes. Then, color former was added thereto in order to induce development at the room temperature for 15 minutes, and 1M of sulfuric acid was added to stop the reaction. The reaction solution became yellow, and the color density depends on the progress of the reaction. The absorbance of the yellow 96-well plate was measured at 405 nm with absorptiometer. The expression of collagenase was calculated by the following equation 1. No sample was treated in the control group.
[Equation 1] The expression of collagenase (%)=[(Absorbance of test group)/(Absorbance of control group)]×100
The expression of collagenase was evaluated as a relative value compared with that of the control group of which the expression of collagenase was set to be 100.

rabbits = experiment: Primary skin irritation test on animals (Draize P.I.I.); type: in vivo; details: 1% in 1,3-butylene glycol:ethanol=7:3, 0.5 ml, observed 24 and 72 hours later
Experimental: This test was performed for six (6) healthy male rabbits whose hairs on both sides of the backs were cut. The compounds of Examples 1˜6 were dissolved in 1,3-butylene glycol:ethanol=7:3, to obtain 1% concentration of test samples. 0.5 ml of each test samples were applied to right side area of 2.5 cm×2.5 cm. No sample was treated on left side as a control. 24 hours and 72 hours later, skin abnormality such as erythema, crust and edema was observed. Based on the score of skin response, skin irritation was estimated according to Draize's P.I.I. (Primary Irritation Index) and compared with that of retinoic acid.

white guinea pigs = experiment: Phototoxicity test; type: in vivo; details: 1% (w/v) solution, UVA 15 J/cm^2, observed at 24, 48 and 72 hours
Experimental: This test was performed for ten (10) white guinea pigs whose hairs on both sides of the backs were cut, and fixed. On the back of the guinea pig, six (6) test sites measuring 2.5 cm×2.5 cm, three (3) per each side, were sectioned. Right sites were prepared as controls with no irradiation (UV non-irradiation sites) and left sites were irradiated (UV irradiation sites). Vehicle (1,3-butylene glycol:ethanol=7:3) was used as a negative control, and 0.1% concentration of 8-MOP (methoxypsoralene) was used as a positive control; and 1% (w/v) solutions of the compounds of Examples 1˜6 were applied to either site with an amount of […] for each site. 30 minutes later, right sites were shielded with aluminum foil and UVA(320˜380 nm) was irradiated at a distance of about 10 cm therefrom with Waldmann to the final energy of 15 J/cm^2. After 24, 48 and 72 hours elapsed, skin response of guinea pig was observed. Erythema and edema were scored from 0 to 4 points as shown in the Table 3, and skin response was evaluated by summing the scores. Maximum scores were selected when measured on each elapsed time, i.e. 24, 48 and 72 hours, and irritation index was calculated according to the following equation 2. Then, phototoxic index was calculated according to the following equation 3.
[Equation 2] Irritation index=(Maximum of erythema+Maximum of edema)/Number of animals [Equation 3] Phototoxic index=(Irritation index of UV irradiation site)−(Irritation index of UV non-irradiation site)

[3] = system: healthy females and males; experiment: Human patch test; type: in vivo; details: 1% in patch base
Experimental: This test was performed for thirty (30) healthy females and males aged on average 24.8 years and having no experience of hypersensitivity, according to method of CTFA Guideline (The Cosmetic, Toiletry and Fragrance Association. Inc. Washington, D.C., 20023, 1991). Each compound of Examples 1˜6 was dissolved in patch base having the composition of Table 6 to be 1% concentration as for test materials, and 20 μl of each test materials was dropped into a Finn chamber respectively, then attached to the forearm of the subject and fixed with a micropore tape. After 24 hours of patching, the patches were removed and the test sites were marked with marking pen. The observations of the test sites were made after 24 and 48 hours from the patching.
The average response of Table 8 was calculated by the following equation 4. [formula]

Structure (SMILES): O=C(Oc1cc(=O)c(O)co1)c1ccc2c(c1)OCCO2 [Compound of Ex. 2, (5-hydroxy-4-oxo-4H-pyran-2-yl) 2H,3H-benzo [3,4-e] 1,4-dioxane-6-carboxylate]
- Biosynthesis of collagen (%) (Human fibroblasts [1]): 121%
- Expression of collagenase (%) (Human fibroblasts [2]): 81%
- Evaluation (skin irritation) (rabbits): No irritation
- P. I. I. (Primary Irritation Index) (rabbits): 0.345
- Evaluation (phototoxicity) (white guinea pigs): No phototoxicity
- Phototoxic index (white guinea pigs; below 0.5 = no phototoxicity): 0
- Average Response (n = 30) ([3]; calculated by equation 4, below 1 = no irritation): 0.42
- Number of the subjected showing response, 24 hours later, − (No visible response) ([3]; n = 30, 24 hours later, grade 0): 30
- Number of the subjected showing response, 24 hours later, ± (Mild erythema) ([3]; n = 30, 24 hours later, grade 1): 0
- Number of the subjected showing response, 24 hours later, + (Intense erythema) ([3]; n = 30, 24 hours later, grade 2): 0
- Number of the subjected showing response, 24 hours later, + + (Intense erythema with edema) ([3]; n = 30, 24 hours later, grade 3): 0
- Number of the subjected showing response, 24 hours later, + + + (Intense erythema with edema and vesicle) ([3]; n = 30, 24 hours later, grade 4): 0
- Number of the subjected showing response, 48 hours later, − (No visible response) ([3]; n = 30, 48 hours later, grade 0): 29
- Number of the subjected showing response, 48 hours later, ± (Mild erythema) ([3]; n = 30, 48 hours later, grade 1): 1
- Number of the subjected showing response, 48 hours later, + (Intense erythema) ([3]; n = 30, 48 hours later, grade 2): 0
- Number of the subjected showing response, 48 hours later, + + (Intense erythema with edema) ([3]; n = 30, 48 hours later, grade 3): 0
- Number of the subjected showing response, 48 hours later, + + + (Intense erythema with edema and vesicle) ([3]; n = 30, 48 hours later, grade 4): 0
